Measurements reported in patent publication US9326986B2, “Quinazolinone, quinolone and related analogs as sirtuin modulators” (GLAXOSMITHKLINE LLC, priority 2008, dated 2016).

Target: T1, SIRT1 (Homo sapiens, UniProt Q96EB6)
T1 sequence (Q96EB6 1-747): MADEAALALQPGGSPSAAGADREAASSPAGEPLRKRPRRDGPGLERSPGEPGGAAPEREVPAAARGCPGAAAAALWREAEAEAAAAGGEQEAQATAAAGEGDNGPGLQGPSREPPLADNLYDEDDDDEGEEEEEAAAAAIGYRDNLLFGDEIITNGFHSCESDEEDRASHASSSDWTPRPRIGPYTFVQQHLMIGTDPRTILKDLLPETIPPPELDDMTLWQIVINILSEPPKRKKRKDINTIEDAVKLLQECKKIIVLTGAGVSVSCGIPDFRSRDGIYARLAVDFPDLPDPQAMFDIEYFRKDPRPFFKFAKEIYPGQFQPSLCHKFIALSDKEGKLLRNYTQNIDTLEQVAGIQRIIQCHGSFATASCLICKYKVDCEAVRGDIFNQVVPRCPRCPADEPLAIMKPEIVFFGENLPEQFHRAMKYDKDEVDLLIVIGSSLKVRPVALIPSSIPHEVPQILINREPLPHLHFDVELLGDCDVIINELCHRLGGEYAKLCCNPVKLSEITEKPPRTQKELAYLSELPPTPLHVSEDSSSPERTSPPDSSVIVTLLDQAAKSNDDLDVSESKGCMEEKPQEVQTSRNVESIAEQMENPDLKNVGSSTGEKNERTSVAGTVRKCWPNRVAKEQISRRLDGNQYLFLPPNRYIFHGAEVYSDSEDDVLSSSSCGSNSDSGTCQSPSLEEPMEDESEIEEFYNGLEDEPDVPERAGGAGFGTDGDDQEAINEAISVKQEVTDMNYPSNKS
Assay: Mass spectrometry based assay to identify modulators of SIRT1 activity (deacetylation of p53-based acetylated peptide)
Format: biochemical
Details: 10 nM SIRT1, 0.5 μM peptide substrate, 120 μM βNAD+, 25 minutes at 25° C.; for EC1.5 μM: SIRT1 activation

Row | % Fold Act. (percent maximum fold activation) | EC1.5 μM | SMILES
1 | A (Fold activation>200%) | A (EC1.5<1.0 μM) | O=C(Nc1nccs1)c1cccc2c(=O)cc(-c3cccc(C(F)(F)F)c3)[nH]c12 [Compound 404]
2 | A (Fold activation>200%) | A (EC1.5<1.0 μM) | O=C(Nc1cccc2c(=O)cc(-c3cccc(C(F)(F)F)c3)[nH]c12)c1cscn1 [Compound 405]
3 | A (Fold activation>200%) | A (EC1.5<1.0 μM) | Cc1cc(NC(=O)c2cccc3c(=O)cc(-c4cccc(C(F)(F)F)c4)[nH]c23)on1 [Compound 406]
4 | A (Fold activation>200%) | A (EC1.5<1.0 μM) | Cc1cc(NC(=O)c2cccc3c(=O)cc(-c4cccc(C(F)(F)F)c4)[nH]c23)n(C)n1 [Compound 407]
5 | A (Fold activation>200%) | A (EC1.5<1.0 μM) | O=C(Nc1cccc2c(=O)cc(-c3cccc(C(F)(F)F)c3)[nH]c12)c1ccccn1 [Compound 408]
6 | A (Fold activation>200%) | A (EC1.5<1.0 μM) | O=C(Nc1cccc2c(=O)cc(-c3cccc(C(F)(F)F)c3)[nH]c12)c1cnccn1 [Compound 409, N-(4-oxo-2-(3-(trifluoromethyl)phenyl)-1,4-dihydroquinolin-8-yl)pyrazine-2-carboxamide]
7 | A (Fold activation>200%) | A (EC1.5<1.0 μM) | Cc1cc(C(=O)Nc2cccc3c(=O)cc(-c4cccc(C(F)(F)F)c4)[nH]c23)n(C)n1 [Compound 410]
8 | A (Fold activation>200%) | A (EC1.5<1.0 μM) | O=C(Nc1cccc2c(=O)cc(-c3cccc(C(F)(F)F)c3)[nH]c12)c1ccns1 [Compound 411]
9 | A (Fold activation>200%) | B (EC1.5 1-25 μM) | O=C(NC1CCOCC1)c1cccc2c(=O)cc(-c3cccc(C(F)(F)F)c3)[nH]c12 [Compound 412]
10 | B (Fold Activation<200%) | B (EC1.5 1-25 μM) | O=C(NC1CCOC1=O)c1cccc2c(=O)cc(-c3cccc(C(F)(F)F)c3)[nH]c12 (centres unmarked) [Compound 413]
11 | A (Fold activation>200%) | A (EC1.5<1.0 μM) | O=C(Nc1ccncn1)c1cccc2c(=O)cc(-c3cccc(C(F)(F)F)c3)[nH]c12 [Compound 415]
12 | A (Fold activation>200%) | A (EC1.5<1.0 μM) | O=C(Nc1cccc2c(=O)cc(-c3cccc(C(F)(F)F)c3)[nH]c12)c1cncs1 [Compound 416]
13 | A (Fold activation>200%) | A (EC1.5<1.0 μM) | O=C(Nc1cccc2c(=O)cc(-c3cccc(C(F)(F)F)c3)[nH]c12)c1ncccn1 [Compound 417]
14 | A (Fold activation>200%) | A (EC1.5<1.0 μM) | O=C(Nc1cccc2c(=O)cc(-c3cccc(C(F)(F)F)c3)[nH]c12)c1ccncn1 [Compound 418]
15 | A (Fold activation>200%) | A (EC1.5<1.0 μM) | O=C(Nc1cccc2c(=O)cc(-c3cccc(C(F)(F)F)c3)[nH]c12)c1cccnc1 [Compound 419]
16 | A (Fold activation>200%) | A (EC1.5<1.0 μM) | Cn1ccnc1C(=O)Nc1cccc2c(=O)cc(-c3cccc(C(F)(F)F)c3)[nH]c12 [Compound 420]
17 | A (Fold activation>200%) | B (EC1.5 1-25 μM) | O=C(Nc1cccc2c(=O)cc(-c3cccc(C(F)(F)F)c3)[nH]c12)c1cncnc1 [Compound 421]
18 | A (Fold activation>200%) | A (EC1.5<1.0 μM) | COc1cccc(C(=O)Nc2cccc3c(=O)cc(-c4cccc(C(F)(F)F)c4)[nH]c23)n1 [Compound 422]
19 | A (Fold activation>200%) | A (EC1.5<1.0 μM) | COc1cc(OC)nc(C(=O)Nc2cccc3c(=O)cc(-c4cccc(C(F)(F)F)c4)[nH]c23)n1 [Compound 423]
20 | A (Fold activation>200%) | A (EC1.5<1.0 μM) | O=C(Nc1cccc2c(=O)cc(-c3cccc(C(F)(F)F)c3)[nH]c12)c1cccc(F)n1 [Compound 424]
21 | A (Fold activation>200%) | A (EC1.5<1.0 μM) | O=C(Nc1cccc2c(=O)cc(-c3cccc(C(F)(F)F)c3)[nH]c12)c1cccc(N2CCOCC2)n1 [Compound 425]

Row | % Fold Act. (percent maximum fold activation) | EC1.5 μM | SMILES
22 | A (Fold activation>200%) | A (EC1.5<1.0 μM) | O=C(Nc1nccs1)c1cccc2c(=O)cc(-c3ccccc3Cl)[nH]c12 [Compound 426]
23 | A (Fold activation>200%) | A (EC1.5<1.0 μM) | O=C(Nc1nccs1)c1cccc2c(=O)cc(-c3ccccc3C(F)(F)F)[nH]c12 [Compound 427]
24 | A (Fold activation>200%) | A (EC1.5<1.0 μM) | O=C(Nc1nccs1)c1cccc2c(=O)cc(-c3cccc(OC(F)F)c3)[nH]c12 [Compound 428]
25 | A (Fold activation>200%) | A (EC1.5<1.0 μM) | O=C(Nc1nccs1)c1cccc2c(=O)cc(-c3cccc(OC(F)(F)F)c3)[nH]c12 [Compound 429]
26 | A (Fold activation>200%) | A (EC1.5<1.0 μM) | O=C(Nc1nccs1)c1cccc2c(=O)cc(-c3ccccc3OC(F)(F)F)[nH]c12 [Compound 430]
27 | A (Fold activation>200%) | A (EC1.5<1.0 μM) | O=C(Nc1nccs1)c1cccc2c(=O)cc(-c3cccc(C(F)F)c3)[nH]c12 [Compound 431]
28 | A (Fold activation>200%) | A (EC1.5<1.0 μM) | O=C(Nc1cnccn1)c1cccc2c(=O)cc(-c3cccc(C(F)F)c3)[nH]c12 [Compound 432]
29 | A (Fold activation>200%) | A (EC1.5<1.0 μM) | O=C(Nc1nccs1)c1cccc2c(=O)cc(-c3cccc(Cl)c3)[nH]c12 [Compound 433]
30 | B (Fold Activation<200%) | A (EC1.5<1.0 μM) | O=C(Nc1cnccn1)c1cccc2c(=O)cc(-c3cccc(Cl)c3)[nH]c12 [Compound 434]
31 | A (Fold activation>200%) | B (EC1.5 1-25 μM) | O=C(Nc1nccs1)c1cccc2c(=O)cc(-c3ccccc3C(F)F)[nH]c12 [Compound 435]
32 | A (Fold activation>200%) | A (EC1.5<1.0 μM) | O=C(Nc1nccs1)c1cccc2c(=O)cc(-c3ccccc3OC(F)F)[nH]c12 [Compound 436]
33 | A (Fold activation>200%) | A (EC1.5<1.0 μM) | O=C(Nc1cccnc1)c1cccc2c(=O)cc(-c3ccccc3C(F)(F)F)[nH]c12 [Compound 437]
34 | A (Fold activation>200%) | B (EC1.5 1-25 μM) | O=C(Nc1cccnc1)c1cccc2c(=O)cc(-c3ccccc3C(F)F)[nH]c12 [Compound 438]
35 | A (Fold activation>200%) | A (EC1.5<1.0 μM) | O=C(Nc1cccnc1)c1cccc2c(=O)cc(-c3ccccc3OC(F)(F)F)[nH]c12 [Compound 439]
36 | A (Fold activation>200%) | B (EC1.5 1-25 μM) | O=C(Nc1cccnc1)c1cccc2c(=O)cc(-c3ccccc3OC(F)F)[nH]c12 [Compound 440]
37 | A (Fold activation>200%) | B (EC1.5 1-25 μM) | O=C(Nc1cccnc1)c1cccc2c(=O)cc(-c3ccccc3Cl)[nH]c12 [Compound 441]
38 | A (Fold activation>200%) | A (EC1.5<1.0 μM) | O=C(Nc1cnccn1)c1cccc2c(=O)cc(-c3cccc(OC(F)(F)F)c3)[nH]c12 [Compound 442]
39 | A (Fold activation>200%) | A (EC1.5<1.0 μM) | O=C(Nc1cccnc1)c1cccc2c(=O)cc(-c3cccc(OC(F)F)c3)[nH]c12 [Compound 443]
40 | A (Fold activation>200%) | A (EC1.5<1.0 μM) | O=C(Nc1cccc2c(=O)cc(-c3ccccc3C(F)(F)F)[nH]c12)c1cscn1 [Compound 444]
41 | A (Fold activation>200%) | A (EC1.5<1.0 μM) | O=C(Nc1cccc2c(=O)cc(-c3ccccc3C(F)(F)F)[nH]c12)c1cnccn1 [Compound 445]
42 | A (Fold activation>200%) | B (EC1.5 1-25 μM) | O=C(Nc1cccc2c(=O)cc(-c3cccc(Cl)c3)[nH]c12)c1cscn1 [Compound 446]

Row | SMILES | % Fold Act. (percent maximum fold activation) | EC1.5 μM
43 | O=C(NC1CN2CCC1CC2)c1cccc2c(=O)cc(-c3cccc(C(F)(F)F)c3)[nH]c12 (centres unmarked) [Compound 414] | A (Fold activation>200%) | B (EC1.5 1-25 μM)
